For ten molecules, Survival % and EC50 results are on record in patent US6002002A, “Anti-ischaemic hydroxylamine derivatives and pharmaceutical compositions” (Biorex Research & Development Co., priority 1995, dated 1999).

pEC50: −log10 of the molar value.

In one assay the test system is anaesthetized rats. The assay is described as follows: Reperfusion-induced arrhytmia (ventricular tachycardia and fibrillation) after LAD coronary occlusion in anaesthetized rats; survival. Type of assay: in vivo. Particulars: rat, 1 mg/kg i.v. 5 minutes before pressing LAD coronary artery; 5 min ischaemia, 10 min reperfusion. As for the experimental part: The reperfusion-induced arrhytmia (ventricular tachycardia, KT and ventricuiar fibrillation, KF) was tested on anaesthetized rats. Myocardial ischaemia was induced by pressing the coronary artery for 5 minutes followed by 10 minutes reperfusion of the heart. The ECG was permanently monitored and the change of mean period of KT and KF by the effect of active materials was measured in the first 3 minutes of reperfusion. Survival was also monitored. The compounds were administered i.v. 5 minutes before pressing the LAD coronary artery in a dosis of 1 mg/kg.
Experimental results obtained by administering some representative compounds of the invention are listed below: […]

A further assay has as its system platelet aggregation. The experiment in a line: Inhibition of ADP-induced platelet aggregation in platelet-rich preparates from human venal blood. Type of assay: cell-based. Particulars: concentration inhibiting the aggregation in 50%, read-out: antiaggregation EC50. As for the experimental part: To the samples sodium citrate was added and 10 minutes later centrifuged with 1000 rpm.

The test system of assay [1] is isolated rabbit thoracal aorta. The assay is described as follows: in vitro vasorelaxation on isolated rabbit thoracal aorta. In kind it is cell-based. Particulars: Oryctolagus cuniculus. As for the experimental part: The vasorelaxant effect of the compounds of the invention was tested in vitro on isolated rabbit thoracal aorta according to Am. J. Physiol. 257:, 1327-1333 (1989).

Take `CCCCCCCNC(=O)NOCC(O)CN1CCCCC1` (stereo not shown) [Example 23, N-heptyl-N'-(2-hydroxy-3-piperidino-propoxy)-urea]: in the assay with anaesthetized rats, the Survival % is on record as 80%. In addition, the negative logarithm of the EC50 (pEC50) in the assay with platelet aggregation was 3.37; in assay [1], 3.72. `CCCCCCNC(=O)NOCCCN1CCCCC1` [Example 16, N-n-hexyl-N'-(3-piperidino-propoxy)-urea]: in the assay on anaesthetized rats, the Survival % is recorded as 83%. The pEC50 in the assay with platelet aggregation was 3.15; in assay [1] it was 3.35. `CC(C)(C)N(CC(O)CONC(=O)NC1CCCCC1)C(=O)NC1CCCCC1` (stereo not shown) [Example 15, N-cyclohexyl-N'-{2-hydroxy-3-[N-(cyclohexyl-carbamoyl)-N-tert-butylamino]-propoxy}-urea] came in with a Survival % in the assay on anaesthetized rats of 60%.

`CCOC(=O)[N-]c1c[n+](N2CCOCC2)no1` [Molsidomin, reference compound]: the pEC50 in the assay on platelet aggregation was 2.82. For `CCCCCCNC(=O)NOCC(O)CN1CCCCC1` (stereo not shown) [Example 6, N-n-hexyl-N'-(2-hydroxy-3-piperidino-propoxy)-urea], in the assay on anaesthetized rats, the Survival % came out at 100%. Besides, the negative-log EC50 (pEC50) in the assay with platelet aggregation was 2.82; in assay [1] it was 3.72.

Take `O=C(NOCC(O)CN1CCCCC1)NC1CCCCC1` (stereo not shown) [Example 5, N-cyclohexyl-N'-(2-hydroxy-3-piperidino-propoxy)-urea]: the Survival % in the assay with anaesthetized rats is 67%. Same read-out and setting: then `CCCNC(=O)NOCC(O)CN1CCCCC1` (stereo not shown) [Example 4, N-n-propyl-N'-(2-hydroxy-3-piperidino-propoxy)-urea], with 67%. In the assay on anaesthetized rats, `O=C(NOCC(O)CN1CCCCC1)Nc1cccc(Cl)c1` (stereo not shown) [Example 7, N-(3-chlorophenyl)-N'-(2-hydroxy-3-piperidino-propoxy)-urea] registered a Survival % of 86%. The values for the pEC50 (with platelet aggregation; in assay [1]) were 3.05 and 4.00, respectively. With `O=C(NOCC(O)CN1CCCCC1)Nc1cccc([N+](=O)[O-])c1` (stereo not shown) [Example 19, N-(3-nitrophenyl)-N'-(2-hydroxy-3-piperidino-propoxy)-urea], the pEC50 was 3.47 in the assay with platelet aggregation and 4.42 in assay [1]. Molecule `CC(C)COCC(CN(Cc1ccccc1)c1ccccc1)N1CCCC1` (stereo not shown) [Bepridyl, reference compound] gave a pEC50 in assay [1] of 4.08.

What is called pEC50 is the negative decadic logarithm of the EC50, by convention in mol/L.
